Where “and” joins values, the source holds several entries; their conditions need not be identical. Identical values can stand only once. Values belong to the molecule of their own block, whether it stands above or below them. Ends that are not written are not given here.
How the values were obtained:
[1] = system: food intake of Wistar rats; assay: In vivo feeding after ICV injection in rats; parameters: species or system rat; conditions: for Feeding: ICV, 1-6 nmoles peptide, chow consumed in 2 hours; for Feeding response in rats (in words): in vivo feeding model
Protocol: Adult male Wistar rats were surgically implanted with a chronic intracerebral ventricular (ICV) cannula (Plastic Products, Roanoke, Va.) using a stereotaxic instrument. Several days after the surgery, 1-6 nmoles of each peptide (or saline) was injected into the lateral ventricle of 4-12 rats in a volume of 5-10 μl. The quantity of rodent chow consumed in a 2 hour period was measured.

[2] = target: T1, rat NPY Y5 receptor (Y861 clone) (Rattus norvegicus, UniProt Q63634); assay: [125I]PYY competition binding, rat Y5 Y861 clone transiently expressed in COS-7 membranes; parameters: expressed in transfected cells; host or cells: COS-7 (transient), membranes; conditions: transient COS-7 membranes, ± SEM, read-out: NPY Y5 binding affinity Ki, RAT Y861 Clone
T1 sequence (Q63634 1-445): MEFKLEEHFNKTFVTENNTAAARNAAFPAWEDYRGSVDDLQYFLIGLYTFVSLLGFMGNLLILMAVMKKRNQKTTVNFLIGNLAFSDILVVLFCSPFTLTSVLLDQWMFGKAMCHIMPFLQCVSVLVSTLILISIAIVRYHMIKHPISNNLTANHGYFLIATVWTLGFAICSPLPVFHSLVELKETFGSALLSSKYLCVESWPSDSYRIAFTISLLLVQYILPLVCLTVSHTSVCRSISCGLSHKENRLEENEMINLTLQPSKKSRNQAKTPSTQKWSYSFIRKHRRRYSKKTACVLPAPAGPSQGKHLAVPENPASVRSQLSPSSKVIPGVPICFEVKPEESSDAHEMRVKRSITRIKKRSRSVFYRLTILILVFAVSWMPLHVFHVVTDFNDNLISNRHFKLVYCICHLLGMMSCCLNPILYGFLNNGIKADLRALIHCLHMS
Protocol: Monkey kidney cells (COS-7) were maintained in T-175 cm^2 flasks (NUNC) at 37° C. with 5% CO2 in a humidified atmosphere. Cells were grown in Dulbecco's Modified Eagle Medium (DMEM) supplemented with 2 mM glutamine, 10% fetal bovine serum, 1 mM sodium pyruvate, and antibiotic/antimycotic. Cells at 70% confluency were transfected with Y5 DNA using the Lipofectamine method (GIBCO-BRL). 15 μg DNA and 90 μl Lipofectamine were added to each flask. Media was completely replaced 24 hours post transfection, and membranes were harvested 24 hours later.
The media was removed from each flask of transfected cells, and the cells were washed twice with 20 ml ice-cold phosphate buffered saline. The cells were scraped from the flask in 5 ml of Tris buffer (20 mM Tris-HCl and 5 mM EDTA, pH 7.7), and then transferred to a centrifuge tube. […] Protein concentration was measured using the Bio-Rad kit pursuant to the standard manufacturer's protocol (Biorad Laboratories, Hercules, Calif.),with bovine IgG as the standard. […]
(§1) After a 2 hour incubation at room temperature with constant mixing, the samples were aspirated on a vacuum manifold. […] The individual wells were punched into 12×75 mm plastic tubes, and counted on a Wallac (Gaithersburg, Md.) gamma counter. Binding data were analyzed using the nonlinear regression curve-fitting program RS/1 (BBN Software Products Corp., Cambridge, Mass.). […]

[3] = target: T2, rat NPY Y5 receptor (6B clone) (Rattus norvegicus, UniProt Q63634, L61P); assay: [125I]PYY competition binding, rat Y5 6B clone transiently expressed in COS-7 membranes; conditions: transient COS-7 membranes, ± SEM, read-out: NPY Y5 binding affinity Ki, RAT 6B Clone
T2 construct: expressed in transfected cells; host or cells: COS-7 (transient), membranes
T2 sequence (Q63634 1-445 L61P): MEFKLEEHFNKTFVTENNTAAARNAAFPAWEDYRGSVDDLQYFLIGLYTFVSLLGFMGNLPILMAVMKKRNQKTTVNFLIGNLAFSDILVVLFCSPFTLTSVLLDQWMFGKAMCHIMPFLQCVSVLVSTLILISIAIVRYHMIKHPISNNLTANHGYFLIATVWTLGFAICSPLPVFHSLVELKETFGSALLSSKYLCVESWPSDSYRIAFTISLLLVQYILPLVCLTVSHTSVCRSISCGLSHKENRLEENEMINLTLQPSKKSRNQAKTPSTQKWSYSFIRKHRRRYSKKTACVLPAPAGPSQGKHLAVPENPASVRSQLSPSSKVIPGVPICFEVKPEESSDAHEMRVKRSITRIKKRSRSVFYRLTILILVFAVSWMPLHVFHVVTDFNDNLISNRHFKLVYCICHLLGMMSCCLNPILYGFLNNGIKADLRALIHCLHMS
Protocol: Cells at 70% confluency were transfected with Y5 DNA using the Lipofectamine method (GIBCO-BRL). 15 μg DNA and 90 μl Lipofectamine were added to each flask. Media was completely replaced 24 hours post transfection, and membranes were harvested 24 hours later.
The media was removed from each flask of transfected cells, and the cells were washed twice with 20 ml ice-cold phosphate buffered saline. The cells were scraped from the flask in 5 ml of Tris buffer (20 mM Tris-HCl and 5 mM EDTA, pH 7.7), and then transferred to a centrifuge tube. Each flask was washed with an additional 5 ml of Tris buffer and combined in the centrifuge tube. The cells were polytroned for 2×10 seconds (12 mm probe, 7000-8000 rpm) and centrifuged 5 minutes (Centra 7R, International Equipment Co., Needham Heights, Mass.) at 800 rpm and 4° C. […] Protein concentration was measured using the Bio-Rad kit pursuant to the standard manufacturer's protocol (Biorad Laboratories, Hercules, Calif.),with bovine IgG as the standard. […]
as §1

human NPY Y5 receptor [4] = target: T3, human NPY Y5 receptor (Homo sapiens, UniProt Q15761); assay: [125I]PYY competition binding, human Y5 clone transiently expressed in COS-7 membranes; conditions: transient COS-7 membranes, ± SEM, read-out: NPY Y5 binding affinity Ki, HUMAN Clone
T3 construct: containing the full length open reading frame encoding the receptor; expressed in transfected cells
T3 sequence (Q15761 1-445): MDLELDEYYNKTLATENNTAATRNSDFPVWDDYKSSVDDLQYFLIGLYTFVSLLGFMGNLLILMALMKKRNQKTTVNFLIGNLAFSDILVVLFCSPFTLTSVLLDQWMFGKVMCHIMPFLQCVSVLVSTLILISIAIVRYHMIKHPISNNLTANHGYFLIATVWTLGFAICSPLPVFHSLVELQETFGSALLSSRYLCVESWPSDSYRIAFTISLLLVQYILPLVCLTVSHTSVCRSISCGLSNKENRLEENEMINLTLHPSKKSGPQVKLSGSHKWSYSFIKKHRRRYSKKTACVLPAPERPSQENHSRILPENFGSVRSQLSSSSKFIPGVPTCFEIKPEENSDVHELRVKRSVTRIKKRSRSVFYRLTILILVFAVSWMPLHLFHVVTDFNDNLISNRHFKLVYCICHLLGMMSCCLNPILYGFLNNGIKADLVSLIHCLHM

human NPY Y5 receptor [5] = target: T4, human NPY Y5 receptor (human, UniProt Q15761 1-445); assay: [125I]PYY competition, membranes of stable 293 clone 293.hY5.sb.8
T4 construct: also called HUMAN Clone
T4 sequence: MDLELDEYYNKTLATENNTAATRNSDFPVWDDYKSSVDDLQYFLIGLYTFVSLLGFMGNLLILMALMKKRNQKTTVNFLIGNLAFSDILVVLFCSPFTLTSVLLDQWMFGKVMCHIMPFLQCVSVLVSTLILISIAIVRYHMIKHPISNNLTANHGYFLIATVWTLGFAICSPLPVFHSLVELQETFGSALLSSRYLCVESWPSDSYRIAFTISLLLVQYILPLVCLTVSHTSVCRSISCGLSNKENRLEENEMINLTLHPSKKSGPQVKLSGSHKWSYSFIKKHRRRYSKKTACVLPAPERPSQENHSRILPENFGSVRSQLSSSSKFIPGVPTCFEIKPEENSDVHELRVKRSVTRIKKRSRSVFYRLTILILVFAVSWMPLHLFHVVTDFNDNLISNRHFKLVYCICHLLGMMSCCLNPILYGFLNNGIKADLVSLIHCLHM

[6] = target: T5, rat NPY Y5 receptor, Y861 clone (rat, UniProt Q63634 1-445); assay: [125I]PYY competition, membranes of stable 293S clone 293S.Y861.2
T5 sequence: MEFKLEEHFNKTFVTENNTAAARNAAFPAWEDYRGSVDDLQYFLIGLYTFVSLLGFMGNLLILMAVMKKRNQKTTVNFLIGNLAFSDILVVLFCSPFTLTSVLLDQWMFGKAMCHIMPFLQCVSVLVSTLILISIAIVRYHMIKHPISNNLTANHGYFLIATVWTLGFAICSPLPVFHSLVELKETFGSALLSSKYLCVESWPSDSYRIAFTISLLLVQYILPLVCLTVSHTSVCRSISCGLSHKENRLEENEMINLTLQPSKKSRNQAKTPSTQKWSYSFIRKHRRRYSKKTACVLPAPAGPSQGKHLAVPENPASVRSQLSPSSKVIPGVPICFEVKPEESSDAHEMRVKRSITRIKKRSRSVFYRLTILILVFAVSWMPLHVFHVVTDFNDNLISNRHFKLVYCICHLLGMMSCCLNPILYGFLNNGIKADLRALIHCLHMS

Rat Y1 (clone) = target: T6, Rat Y1 (clone) (Rattus norvegicus, UniProt P21555); assay: [125I]PYY binding assay for rat Y1 receptor
T6 sequence (P21555 1-382): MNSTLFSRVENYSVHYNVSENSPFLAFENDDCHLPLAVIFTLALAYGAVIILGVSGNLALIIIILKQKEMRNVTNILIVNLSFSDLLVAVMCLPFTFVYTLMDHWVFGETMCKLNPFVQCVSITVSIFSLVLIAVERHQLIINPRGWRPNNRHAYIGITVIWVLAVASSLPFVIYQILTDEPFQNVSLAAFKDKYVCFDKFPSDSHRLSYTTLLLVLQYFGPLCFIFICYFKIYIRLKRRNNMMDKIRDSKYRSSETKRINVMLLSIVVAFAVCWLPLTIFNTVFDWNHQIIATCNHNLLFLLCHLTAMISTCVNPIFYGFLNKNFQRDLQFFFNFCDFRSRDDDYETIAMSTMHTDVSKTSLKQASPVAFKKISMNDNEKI

Rat Y2 (clone) = target: T7, Rat Y2 (clone) (Rattus norvegicus, UniProt Q9ERC0); assay: [125I]PYY binding assay for rat Y2 receptor
T7 sequence (Q9ERC0 1-381): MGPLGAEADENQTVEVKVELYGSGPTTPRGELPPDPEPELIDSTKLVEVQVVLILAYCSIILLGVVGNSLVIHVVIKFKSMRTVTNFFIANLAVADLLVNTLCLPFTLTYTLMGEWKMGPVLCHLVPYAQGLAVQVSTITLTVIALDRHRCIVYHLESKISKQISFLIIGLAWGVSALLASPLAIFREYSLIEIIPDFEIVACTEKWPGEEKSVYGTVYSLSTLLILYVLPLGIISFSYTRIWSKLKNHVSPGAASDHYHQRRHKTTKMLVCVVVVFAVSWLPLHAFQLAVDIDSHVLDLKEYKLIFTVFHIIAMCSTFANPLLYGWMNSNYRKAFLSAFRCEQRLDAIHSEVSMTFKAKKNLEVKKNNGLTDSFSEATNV

[7] = target: T5, rat NPY Y5 receptor, Y861 clone; assay: cell-based or functional assay
human NPY Y5 receptor [8] = target: T4, human NPY Y5 receptor; assay: [125I]PYY competition, membranes of transiently transfected COS-7 cells; individual experiment
Protocol: The binding assays were performed on GF/C Millipore (Bedford, Mass.) 96-well plates pretreated with 0.02% polyethylenimine (PEI) for at least 2 hours prior to use. The PEI was aspirated from the plates on a vacuum manifold immediately before the samples were added to the wells. All peptides, tissue and radioligand were diluted with binding buffer (25 mM Tris, 120 mM NaCl, 5 mM KCl, 1.2 MM KH₂PO₄, 2.5 mM CaCl₂, 1.2 mM MgSO₄, 0.1% BSA and 0.5 mg/ml bacitracin, pH 7.4).
After a 2 hour incubation at room temperature with constant mixing, the samples were aspirated on a vacuum manifold. The wells were washed with three 200 μl aliquots of ice-cold binding buffer. The individual wells were punched into 12×75 mm plastic tubes, and counted on a Wallac (Gaithersburg, Md.) gamma counter. Binding data were analyzed using the nonlinear regression curve-fitting program RS/1 (BBN Software Products Corp., Cambridge, Mass.).
Each point is the average value of triplicate determinations from a representative experiment. […] Kᵢ values were calculated from the IC₅₀ values using the Cheng-Prusoff correction, such that Kᵢ=IC₅₀/(1±(L/Kd)), where L is the radioligand concentration and Kd is the dissociation constant.

Molecule: (22-36)NPY [r/h(22-36)NPY]
- Feeding [1]: <3 g/2 h

Molecule: (20-36)NPY [r/h(20-36)NPY]
- Feeding [1]: <3 g/2 h
- Feeding response in rats (in words) [1]: do not elicit feeding

- Ki [2]: > 1000 nM
- Ki [3]: > 1000 nM
- Ki (human NPY Y5 receptor [4]): > 1000 nM
Molecule: NC(N)=NCCC[C@@H](NC(=O)C(c1ccccc1)c1ccccc1)C(=O)NCc1ccc(O)cc1 [BIBP3226]

Molecule: (10-36)NPY [r/h(10-36)NPY]
- Feeding [1]: <3 g/2 h

- Ki (human NPY Y5 receptor [5]): 24 nM
- Ki [6]: 29 nM
Molecule: (13-36)PYY (peptide)

Molecule: (Leu^31Pro^34)(3-36)NPY [(LP)(3-36)NPY]
- Feeding [1]: >5 g/2 h
- Feeding response in rats (in words) [1]: stimulates feeding

Molecule: (18-36)NPY [p(18-36)NPY]
- Feeding [1]: <3 g/2 h

Molecule: (Leu^31Pro^34)PYY [h(LP)PYY]
- Feeding [1]: >5 g/2 h

- Affinity for Y1 receptor (in words) (Rat Y1 (clone)): much weaker
- Affinity for Y2 receptor (in words) (Rat Y2 (clone)): binds preferentially
Molecule: (3-36)NPY [p(3-36)NPY]
- Feeding [1]: >5 g/2 h
- Feeding response in rats (in words) [1]: stimulate feeding

Molecule: (26-36)NPY [r/h(26-36)NPY]
- Feeding [1]: <3 g/2 h

Molecule: (Leu^31Pro^34)NPY [p(LP)NPY]
- Feeding [1]: >5 g/2 h
- Feeding response in rats (in words) [1]: stimulate feeding

Molecule: (2-36)NPY [r/h(2-36)NPY]
- Feeding [1]: >5 g/2 h

Molecule: Neuropeptide Y [r/hNPY]
- Feeding [1]: >5 g/2 h

- EC50, forskolin-stimulated adenylate cyclase (cAMP), 293S.Y861.2 cells [7]: 1 nM
Molecule: APLEPVYPGDNATPEQMAQYAADLRRYINMLTRPRY (peptide, UniProt P01298 30-65, looked up) [hPP (human pancreatic polypeptide)]

- Ki (human NPY Y5 receptor [8]): 89 nM and 65 nM
B1: r(13-36)NPY (peptide, UniProt P07808 42-65, looked up)
peptide: PAEDMARYYSALRHYINLITRQRY
modifications: ends and bridges not checked
notes: range 13-36; it may be a misprint for r(13-36)PYY (rat NPY is elsewhere written r/h)
